How the values were obtained:
[1] = system: HT1080 cells; assay: HT1080 cellular assay, 2-HG by LC-MS (IDH1 R132C); assay type: cell-based; conditions: Homo sapiens, HT-1080
Protocol: The following describes the experimental procedures that can be used to obtain data on column 5 of Table 4.
Cells (HT1080 or U87MG) are grown in T125 flasks in DMEM containing 10% FBS, 1× penicillin/streptomycin and 500 ug/mL G418 (present in U87MG cells only). They are harvested by trypsin and seeded into 96 well white bottom plates at a density of 5000 cell/well in 100 ul/well in DMEM with 10% FBS. No cells are placed in columns 1 and 12. Cells are incubated overnight at 37° C. in 5% CO2. The next day test compounds are made up at 2× the final concentration and 100 ul are added to each cell well. The final concentration of DMSO is 0.2% and the DMSO control wells are plated in row G. The plates are then placed in the incubator for 48 hours. At 48 hours, 100 ul of media is removed from each well and analyzed by LC-MS for 2-HG concentrations. The cell plate is placed back in the incubator for another 24 hours. At 72 hours post compound addition, 10 mL/plate of Promega Cell Titer Glo reagent is thawed and mixed. The cell plate is removed from the incubator and allowed to equilibrate to room temperature. Then 100 ul of Promega Cell Titer Glo reagent is added to each well of media. The cell plate is then placed on an orbital shaker for 10 minutes and then allowed to sit at room temperature for 20 minutes. The plate is then read for luminescence with an integration time of 500 ms.
HT1080 cells are maintained in RPMI containing 10% FBS, 1× penicillin/streptomycin. […] The next day compounds are prepared in 100% DMSO and then diluted in media for a final concentration of 0.2% DMSO. Media is removed from the cell plates and 200 μL of the compound dilutions are added to each well. […] The cell plates are then allowed to incubate another 24 hours.

[2] = target: IDH1 wt/IDH1 R132H heterodimer (Homo sapiens (Human), UniProt O75874, R132H); assay: IDH1 wt/R132H heterodimer NADPH depletion (diaphorase/resazurin) assay; assay type: biochemical; conditions: read-out: IDH1 wt/R132H NADPH/NADP IC50 not saturated
Chain of IDH1 wt/IDH1 R132H heterodimer (O75874 whole entry R132H): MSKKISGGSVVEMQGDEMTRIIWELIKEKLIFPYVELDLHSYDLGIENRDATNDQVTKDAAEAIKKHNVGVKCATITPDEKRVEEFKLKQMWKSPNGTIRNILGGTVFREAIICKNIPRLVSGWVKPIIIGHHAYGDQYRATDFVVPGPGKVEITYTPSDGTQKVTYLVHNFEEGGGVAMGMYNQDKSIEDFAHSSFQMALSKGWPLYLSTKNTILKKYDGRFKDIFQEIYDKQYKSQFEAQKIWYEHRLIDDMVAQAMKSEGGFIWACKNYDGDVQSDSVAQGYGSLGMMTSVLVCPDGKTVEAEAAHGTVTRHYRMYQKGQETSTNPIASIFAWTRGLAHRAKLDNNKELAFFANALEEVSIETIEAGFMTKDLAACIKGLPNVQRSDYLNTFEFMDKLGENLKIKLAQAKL
Chain of IDH1 wt/IDH1 R132H heterodimer (O75874 whole entry, stated change not applied): as the sequence (O75874 whole entry R132H) above, with H132R counted along it
Protocol: The following describes the experimental procedures that can be used to obtain data on columns 2 and 4 of Table 4 and column 2 of Table 5.
In the primary reaction, the reduction of α-KG acid to 2-HG is accompanied by a concomitant oxidation of NADPH to NADP. The amount of NADPH remaining at the end of the reaction time is measured in a secondary diaphorase/resazurin reaction in which the NADPH is consumed in a 1:1 molar ratio with the conversion of resazurin to the highly fluorescent resorufin.
The mixture of compound, enzyme, and cofactor is pre-incubated at room temperature for 1 hr prior to the addition of alpha-ketoglutarate. To perform the secondary reaction, 10 uL of 1× buffer containing 36 μg/ml diaphorase and […] resazurin is added to the primary reaction and incubated for a further 5 minutes at 25° C. […] Compounds or compound dilutions are prepared in 100% DMSO concentration and diluted 1:50 into the final reaction. […] IC50s are determined.
IDH1 or IDH2 wildtype (wt) and mutant heterodimers are expressed and purified by methods known in the art. […] Co-expression of IDH1wt-his and IDH1R132C-flag is carried out in sf9 insect cells. […] Cells are disrupted with 4 passes through an M-Y110 Micro fluidizer (Microfluidics) set to 500 psi, and then centrifuged at 22,000 rcf for 20 min at 4° C. […]

[3] = target: IDH1-R132 homodimer enzyme (R132H) (Homo sapiens (Human), UniProt O75874, R132H); assay: IDH1 R132H homodimer NADPH depletion assay (Table 4 column 3); assay type: biochemical
Chain of IDH1-R132 homodimer enzyme (R132H) (O75874 whole entry R132H): as the sequence (O75874 whole entry R132H) above
Protocol: (§1) The following describes the experimental procedures that can be used to obtain data on columns 3 and 6 of Table 4.
(§2) A test compound is prepared as 10 mM stock in DMSO and diluted to 50× final concentration in DMSO, for a 50 μl reaction mixture. IDH enzyme activity converting alpha-ketoglutarate to 2-hydroxyglutaric acid is measured using a NADPH depletion assay. In the assay the remaining cofactor is measured at the end of the reaction with the addition of a catalytic excess of diaphorase and resazurin, to generate a fluorescent signal in proportion to the amount of NADPH remaining. […] The reaction is started with the addition of 10 μl of Substrate Mix ([…], 5 mM alpha-ketoglutarate, in Assay Buffer) and the mixture is incubated for 90 minutes at room temperature.

[4] = target: IDH1 R132C (Homo sapiens (Human), UniProt O75874, R132C); assay: IDH1 R132C homodimer NADPH depletion assay (Table 4 column 6); assay type: biochemical
Chain of IDH1 R132C (O75874 whole entry R132C): as the sequence (O75874 whole entry R132H) above, with H132C counted along it
Protocol: as §1, §2
The concentration of NADPH and alpha-ketoglutarate in the Substrate Buffer is 20 μM and 1 mM, respectively.

[5] = target: IDH2 R140Q (Homo sapiens (Human), UniProt P48735, R140Q); assay: IDH2 R140Q cofactor depletion assay (Table 4 column 7); assay type: biochemical
Chain of IDH2 R140Q (P48735 40-452 R140Q): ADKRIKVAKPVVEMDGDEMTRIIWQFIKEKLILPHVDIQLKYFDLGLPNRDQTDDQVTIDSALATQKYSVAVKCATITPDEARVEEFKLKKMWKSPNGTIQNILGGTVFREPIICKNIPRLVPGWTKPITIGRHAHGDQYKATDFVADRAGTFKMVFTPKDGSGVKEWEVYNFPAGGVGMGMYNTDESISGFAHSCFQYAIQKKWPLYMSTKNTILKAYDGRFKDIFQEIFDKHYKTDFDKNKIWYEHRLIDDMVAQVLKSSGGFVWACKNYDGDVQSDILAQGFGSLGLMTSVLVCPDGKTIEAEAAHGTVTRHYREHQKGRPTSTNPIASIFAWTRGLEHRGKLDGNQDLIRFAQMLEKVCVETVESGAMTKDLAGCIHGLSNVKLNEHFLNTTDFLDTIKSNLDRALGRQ
Source text: The following describes the experimental procedures used to obtain data on column 7 of Table 4.
The reaction is terminated by the addition of a second enzyme, diaphorase, and a corresponding substrate, resazurin. Diaphorase reduces resazurin to the highly fluorescent resorufin with the concomitant oxidation of NADPH to NADP, both halting the IDH2 reaction by depleting the available cofactor pool and facilitating quantitation of the amount of cofactor remaining after a specific time period through quantitative production of an easily detected fluorophore.
The test compound is then incubated for one hour at room temperature with the enzyme; before starting the IDH2 reaction with the addition of 10 μl of substrate mix containing 4 μM NADPH and 1.6 mM α-KG in the buffer described above. After a further 16 hours of incubation at room temperature, the reaction is halted and the remaining NADPH measured through conversion of resazurin to resorufin by the addition of 25 μl Stop Mix (36 μg/ml diaphorase enzyme and 60 μM resazurin; in buffer).

[6] = system: U87MG pLVX-IDH2 R140Q-neo cells; assay: U87MG pLVX-IDH2 R140Q-neo cell based assay, 2-HG by LC-MS; conditions: Homo sapiens, U-87 MG

Row | SMILES | IC50 [1] [µM] | other results
1 | FC1(F)CC[C@H](Nc2nc(Nc3ccnc(C(F)(F)F)c3)nc(-n3ccc(C(F)(F)F)n3)n2)C1 [Compound 393] | 0.1 to 1 | 
2 | FC1(F)CC[C@@H](Nc2nc(N[C@@H]3CCC(F)(F)C3)nc(-c3cncc(C(F)(F)F)n3)n2)C1 [Compound 410] | < 0.05 | 
3 | FC1(F)CCC(Nc2nc(NC3CCC(F)(F)C3)nc(-c3cncc(C(F)(F)F)n3)n2)C1 (centres unmarked) [Compound 138] | < 0.05 | 
4 | FC1(F)CC[C@@H](Nc2nc(N[C@H]3CCC(F)(F)C3)nc(-c3cncc(C(F)(F)F)n3)n2)C1 [Compound 399] | < 0.05 | 
5 | N#CC1(c2cc(Nc3nc(NC4CCC(F)(F)C4)nc(-n4ccc(C(F)(F)F)n4)n3)ccn2)CC1 (centres unmarked) [Compound 185] | 0.05 to 0.1 | 
6 | FC1(F)CC(Nc2nc(Nc3ccnc(C(F)(F)F)c3)nc(-c3cccc(C(F)(F)F)n3)n2)C1 [Compound 190] | 0.1 to 1 | 
7 | N#CC1(c2cc(Nc3nc(N[C@H]4CCC(F)(F)C4)nc(-n4ccc(C(F)(F)F)n4)n3)ccn2)CC1 [Compound 174] | 0.05 to 0.1 | 
8 | FC1(F)CCC(Nc2nc(Nc3ccnc(C(F)(F)F)c3)nc(-c3cccc(C(F)(F)F)n3)n2)C1 (centres unmarked) [Compound 178] | 0.1 to 1 | 
9 | FC1(F)CCC(Nc2nc(Nc3ccnc(C(F)(F)F)c3)nc(-n3ccc(C(F)(F)F)n3)n2)C1 (centres unmarked) [Compound 173] | 0.05 to 0.1 | 
10 | N#CC1(c2cc(Nc3nc(N[C@@H]4CCC(F)(F)C4)nc(-n4ccc(C(F)(F)F)n4)n3)ccn2)CC1 [Compound 350] | 0.05 to 0.1 | 
11 | Cc1cccc(-c2nc(NC3CCC(F)(F)CC3)nc(N[C@H](C)C3CC3)n2)n1 [Compound 50] |  | IC50 [2]: < 0.05 µM; IC50 [3]: < 0.05 µM; IC50 [4]: 0.05 to 0.1 µM
12 | N#CC1(c2cc(Nc3nc(NC4CCC(F)(F)C4)nc(-c4cccc(C(F)(F)F)n4)n3)ccn2)CC1 (centres unmarked) [Compound 151] | 0.05 to 0.1 | 
13 | FC1(F)CC[C@@H](Nc2nc(Nc3ccnc(C(F)(F)F)c3)nc(-c3cccc(C(F)(F)F)n3)n2)C1 [Compound 172] | 0.05 to 0.1 | 
14 | N#CC1(c2cc(Nc3nc(N[C@H]4CCC(F)(F)C4)nc(-c4cccc(C(F)(F)F)n4)n3)ccn2)CC1 [Compound 133] | 0.1 to 1 | 
15 | CC(Nc1nc(Nc2ccnc(C(F)(F)F)c2)nc(-n2ccc(C(F)(F)F)n2)n1)C(F)(F)F (centres unmarked) [Compound 177] | 0.05 to 0.1 | 
16 | N#CC1(c2cc(Nc3nc(N[C@@H]4CCC(F)(F)C4)nc(-c4cccc(C(F)(F)F)n4)n3)ccn2)CC1 [Compound 137] | 0.05 to 0.1 | 
17 | FC1(F)CC[C@H](Nc2nc(N[C@H]3CCC(F)(F)C3)nc(-c3cncc(C(F)(F)F)n3)n2)C1 [Compound 406] | < 0.05 | 
18 | CC(C)(O)CNc1nc(Nc2ccnc(C(F)(F)F)c2)nc(-c2cccc(C(F)(F)F)n2)n1 [Compound 288] |  | IC50 [2]: 0.1 to 1 µM; IC50 [5]: 0.1 to 1 µM; IC50 [6]: 0.1 to 1 µM
19 | FC1(F)CC[C@H](Nc2nc(Nc3ccnc(C(F)(F)F)c3)nc(-c3cccc(C(F)(F)F)n3)n2)C1 [Compound 158] | 0.1 to 1 | 
